Experiment [1] relates to histamine-induced bronchoconstriction. The experiment can be described thus: Effects on histamine-induced bronchoconstriction in anaesthetised guinea pigs. It is filed as in vivo, guinea pig. The following applies: for ED50: Cavia porcellus, iv, male anaesthetised guinea pigs, administered via cannulated left jugular vein immediately before histamine, read-out: ED50 (effective dose required to reduce the histamine-induced constriction in lung air volume by 50%); for antagonising the bronchoconstricting activity of histamine: anaesthetised guinea pigs, result in words. The method, then:
A. Effects on histamine-induced bronchoconstriction in anaesthetised guinea pigs
Male guinea pigs weighing 300-400 grams, after overnight starving, were anaesthetised with intraperitoneal administration of 0.7 ml/100 g of urethane. The preparation was as described by Konsett et al [Arch. exp. Path. Pharmakol. […] (1940), p. 71] with a ventilatory pump stroke volume varying between 4 to 6 ml of air (adjusted for each animal) at a stroke rate of 80 per minute to maintain a lung inflation pressure of 7.5 cm of H2 O. Blood pressure was measured via a cannula in the right carotid artery connected to a Statham blood pressure transducer and a Devices M2 recorder. The test compounds were administered via the cannulated left jugular vein and washed in with 0.1 ml of 0.9% w/w sodium chloride in distilled water. The test product was administered immediately before the histamine which was used as the agonist.
Respiratory changes were recorded via a differential transducer connected to an SE 905 transducer/converter which in turn was connected to a Devices M2 recorder. The results given in Table I show the effective dose of each of the test compounds required to reduce the histamine-induced constriction in lung air volume by 50%.

Experiment [2] relates to isolated guinea pig tracheas. The experiment can be described thus: Effect on isolated guinea pig tracheas (histamine-induced contraction). As to conditions: for EC50: Cavia porcellus, spirally cut trachea, Krebs Henseleit solution, 37° C., histamine as agonist, read-out: EC50 (amount required to reduce the histamine-induced contraction of the guinea pig trachea by 50%). It is filed as cell-based. As to the method: B Effect on isolated guinea pig tracheas
Guinea pigs were killed by a blow on the back of the neck and the tracheas were excised, cut spirally and suspended in Krebs Henseleit solution at 37° C. and aerated with 95% O2 +5% CO2. Histamine was used as the agonist.

Structures are written as SMILES. Converted amounts (≈) assume the structure as drawn. Structures can show the parent of a compound that is named as a salt.

A word on the ED50: it is the dose that gives a 50% effect, or the effect in half of the subjects. For `CCOC(=O)N1CCN(CCCn2cnn3c(=O)c4cc(C)ccc4nc23)CC1` [Example 34, 1-{3-[4-(ethoxycarbonyl)-piperazin-1-yl]-propyl}-7-methyl-[1,2,4]-triazolo-[5,1-b]-quinazolin-5-(1H)-one], the ED50 in experiment [1] was found to be 0.01 mg/kg.
One may read the EC50 as the concentration at which the effect is half-maximal. For `O=c1c2ccccc2nc2n(CCCCN3CCN(C4CCCCC4)CC3)cnn12` [Example 5], the ED50 in experiment [1] came to 0.9 mg/kg. In addition, the EC50 in experiment [2] was 10.2 µg/mL (≈ 25 µM).
As to `O=c1c2ccccc2nc2n(CCCCCN3CCCCC3)cnn12` [Example 12], in experiment [1], the 50% effective dose (ED50) was 1 mg/kg. Further, in experiment [2], the EC50 worked out at 16 µg/mL (≈ 47.1 µM).
For `O=c1c2ccccc2nc2n(CCCCCN3CCN(c4cccc(Cl)c4)CC3)cnn12` [Example 11], the ED50 in experiment [1] is 0.05 mg/kg.
Turning to `O=c1c2ccccc2nc2n(CCCN3CCC(O)(c4ccccc4)CC3)cnn12` [Example 8], the ED50 in experiment [1] is 2 mg/kg.
The same measure, in the same setting: to `O=c1c2cc([N+](=O)[O-])ccc2nc2n(CCCCN3CCN(c4cccc(Cl)c4)CC3)cnn12` [Example 10] belongs 0.1 mg/kg.
Turning to `O=c1c2ccccc2nc2n(CCCCN3CCN(c4cccc(Cl)c4)CC3)cnn12` [Example 1 & 2, 1-{4-[4-(m-chlorophenyl)-piperazin-1-yl]-butyl}-triazolo-[1,2,4][5,1-b]-quinazolin-5(1H)-one dihydrochloride], in experiment [1], the ED50 amounted to 0.02 mg/kg and the “antagonising the bronchoconstricting activity of histamine” value is on record as “very effective”. Also, the EC50 in experiment [2] turned out to be 0.1 µg/mL.
Take `O=c1c2ccccc2nc2n(CCCN3CCCCC3)cnn12` [Example 7]: in experiment [1], the ED50 is 0.3 mg/kg. For the same molecule, in experiment [2], the EC50 came out at 15 µg/mL (≈ 48.2 µM).
For `CCOC(=O)N1CCN(CCCCn2cnn3c(=O)c4cc(C)ccc4nc23)CC1` [Example 3, 1-{4-[4-(ethoxycarbonyl)-piperazin-1-yl]-butyl}-7-methyl[1,2,4] triazolo [5,1-b]-quinazolin-5(1H)-one dihydrochloride], in experiment [1], the ED50 is 0.008 mg/kg and the “antagonising the bronchoconstricting activity of histamine” value is on record as “very effective”.
Regarding `O=c1c2ccccc2nc2n(CCCCN3CCC(O)(c4ccccc4)CC3)cnn12` [Example 4], the ED50 in experiment [1] amounted to 0.3 mg/kg. Besides, the EC50 in experiment [2] worked out at 34 µg/mL (≈ 81.4 µM).
Consider `O=c1c2ccccc2nc2n(CCCN3CCN(c4cccc(Cl)c4)CC3)cnn12` [Example 6], for which the ED50 in experiment [1] worked out at 0.03 mg/kg. The EC50 in experiment [2] was 0.25 µg/mL (≈ 0.591 µM).
For the molecule `CCOC(=O)N1CCN(CCCCn2cnn3c(=O)c4ccccc4nc23)CC1` [Example 15, 1-{4-[4-(ethoxycarbonyl)-piperazin-1-yl]-butyl}-[1,2,4]-triazolo-[5,1-b]-quinazolin-5-(1H)-one], in experiment [1], the ED50 worked out at 0.05 mg/kg.
For the molecule `O=c1c2ccccc2nc2n(CCCCN3CCN(c4cccc(Cl)c4)CC3)cnn12` [1 and 2], the “antagonistic effect, persistence” value in experiment [2] (isolated guinea pig trachea, after compound washed out, result in words) is “very prolonged”. Besides, in experiment [2] (isolated guinea pig trachea, after wash-out), the “time for which antagonistic effect could be demonstrated after the compound had been washed out” value is on record as “up to 30 minutes”. In addition, in experiment [2] (isolated guinea pig trachea, result in words), the “antagonist of histamine induced contractions” value is on record as “potent antagonist”.
As to `O=c1c2ccccc2nc2n(CCCCN3CCCCC3)cnn12` [Example 24], the ED50 in experiment [1] was determined as 0.7 mg/kg. For the same molecule, the concentration giving a half-maximal response (EC50) in experiment [2] is 36 µg/mL (≈ 111 µM).
